Test results published in ChEMBL document CHEMBL1201862, “PubChem BioAssay data set” (2004).
The source made the active and inactive calls.

Legend:
Phospholipase A2 = Phospholipase A2 (Homo sapiens, UniProt P04054); type: functional;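 also: confirmatory dose-response counterscreen on phospholipase A2, testing hits that came from an ultra-high-throughput screen for ATG4B inhibitors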
Cysteine protease ATG4B = Cysteine protease ATG4B (Homo sapiens, UniProt Q9Y4P1); type: functional;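 also: Fluorescence-based dose-response confirmation assay measuring inhibition of ATG4B activity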
Sequence of Cysteine protease ATG4B (Q9Y4P1 whole entry): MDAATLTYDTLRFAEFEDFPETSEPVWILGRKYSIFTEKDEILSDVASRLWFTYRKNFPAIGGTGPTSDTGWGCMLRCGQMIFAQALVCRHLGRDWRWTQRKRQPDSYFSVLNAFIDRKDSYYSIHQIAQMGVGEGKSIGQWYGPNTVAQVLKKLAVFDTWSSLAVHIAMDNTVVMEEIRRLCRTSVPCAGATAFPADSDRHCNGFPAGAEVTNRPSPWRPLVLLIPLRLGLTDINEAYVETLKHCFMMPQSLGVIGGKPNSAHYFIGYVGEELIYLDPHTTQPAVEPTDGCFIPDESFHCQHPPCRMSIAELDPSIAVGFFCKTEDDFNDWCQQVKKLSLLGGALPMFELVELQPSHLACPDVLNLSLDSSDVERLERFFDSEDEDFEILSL

[1] = molecular target: Induced myeloid leukemia cell differentiation protein Mcl-1 (Homo sapiens, UniProt Q07820); type: functional
Sequence of Induced myeloid leukemia cell differentiation protein Mcl-1 (Q07820 whole entry): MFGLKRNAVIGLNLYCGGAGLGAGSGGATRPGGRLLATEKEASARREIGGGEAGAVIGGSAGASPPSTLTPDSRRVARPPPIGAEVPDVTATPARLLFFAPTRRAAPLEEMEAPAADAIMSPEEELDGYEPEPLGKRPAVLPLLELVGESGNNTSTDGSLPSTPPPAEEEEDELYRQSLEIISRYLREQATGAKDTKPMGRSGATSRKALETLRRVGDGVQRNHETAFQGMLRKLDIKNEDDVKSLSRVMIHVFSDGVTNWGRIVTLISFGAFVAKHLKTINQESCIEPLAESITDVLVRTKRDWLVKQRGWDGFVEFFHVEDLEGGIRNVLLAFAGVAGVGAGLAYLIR

[2] = molecular target: T1, Bifunctional protein GlmU (Mycobacterium tuberculosis, UniProt P9WMN3); assay: Inhibitors of Mycobacterial Glucosamine-1-phosphate acetyl transferase (GlmU). Secondary screen.; parameters: species or system Mycobacterium tuberculosis H37Rv
T1 sequence (P9WMN3 whole entry): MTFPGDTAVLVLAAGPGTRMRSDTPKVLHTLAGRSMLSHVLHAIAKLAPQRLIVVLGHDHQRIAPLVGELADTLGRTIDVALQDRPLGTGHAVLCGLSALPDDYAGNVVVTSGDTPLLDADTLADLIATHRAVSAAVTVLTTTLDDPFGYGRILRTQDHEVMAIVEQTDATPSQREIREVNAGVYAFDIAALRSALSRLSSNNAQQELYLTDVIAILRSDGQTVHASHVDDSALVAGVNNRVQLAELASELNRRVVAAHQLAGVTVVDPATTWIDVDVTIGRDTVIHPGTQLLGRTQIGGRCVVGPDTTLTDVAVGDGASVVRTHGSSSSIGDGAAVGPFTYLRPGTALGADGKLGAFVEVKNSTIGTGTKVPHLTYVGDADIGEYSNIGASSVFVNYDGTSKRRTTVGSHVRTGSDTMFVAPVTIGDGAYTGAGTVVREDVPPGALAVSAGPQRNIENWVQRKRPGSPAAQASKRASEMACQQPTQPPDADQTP

[3] = molecular target: Apoptotic protease-activating factor 1 (Homo sapiens, UniProt O14727); assay: activation of Apaf-1 mediated apoptosis – fluorescent, uHTS hits, dose response (AID 588554); type: functional
Sequence of Apoptotic protease-activating factor 1 (O14727 whole entry): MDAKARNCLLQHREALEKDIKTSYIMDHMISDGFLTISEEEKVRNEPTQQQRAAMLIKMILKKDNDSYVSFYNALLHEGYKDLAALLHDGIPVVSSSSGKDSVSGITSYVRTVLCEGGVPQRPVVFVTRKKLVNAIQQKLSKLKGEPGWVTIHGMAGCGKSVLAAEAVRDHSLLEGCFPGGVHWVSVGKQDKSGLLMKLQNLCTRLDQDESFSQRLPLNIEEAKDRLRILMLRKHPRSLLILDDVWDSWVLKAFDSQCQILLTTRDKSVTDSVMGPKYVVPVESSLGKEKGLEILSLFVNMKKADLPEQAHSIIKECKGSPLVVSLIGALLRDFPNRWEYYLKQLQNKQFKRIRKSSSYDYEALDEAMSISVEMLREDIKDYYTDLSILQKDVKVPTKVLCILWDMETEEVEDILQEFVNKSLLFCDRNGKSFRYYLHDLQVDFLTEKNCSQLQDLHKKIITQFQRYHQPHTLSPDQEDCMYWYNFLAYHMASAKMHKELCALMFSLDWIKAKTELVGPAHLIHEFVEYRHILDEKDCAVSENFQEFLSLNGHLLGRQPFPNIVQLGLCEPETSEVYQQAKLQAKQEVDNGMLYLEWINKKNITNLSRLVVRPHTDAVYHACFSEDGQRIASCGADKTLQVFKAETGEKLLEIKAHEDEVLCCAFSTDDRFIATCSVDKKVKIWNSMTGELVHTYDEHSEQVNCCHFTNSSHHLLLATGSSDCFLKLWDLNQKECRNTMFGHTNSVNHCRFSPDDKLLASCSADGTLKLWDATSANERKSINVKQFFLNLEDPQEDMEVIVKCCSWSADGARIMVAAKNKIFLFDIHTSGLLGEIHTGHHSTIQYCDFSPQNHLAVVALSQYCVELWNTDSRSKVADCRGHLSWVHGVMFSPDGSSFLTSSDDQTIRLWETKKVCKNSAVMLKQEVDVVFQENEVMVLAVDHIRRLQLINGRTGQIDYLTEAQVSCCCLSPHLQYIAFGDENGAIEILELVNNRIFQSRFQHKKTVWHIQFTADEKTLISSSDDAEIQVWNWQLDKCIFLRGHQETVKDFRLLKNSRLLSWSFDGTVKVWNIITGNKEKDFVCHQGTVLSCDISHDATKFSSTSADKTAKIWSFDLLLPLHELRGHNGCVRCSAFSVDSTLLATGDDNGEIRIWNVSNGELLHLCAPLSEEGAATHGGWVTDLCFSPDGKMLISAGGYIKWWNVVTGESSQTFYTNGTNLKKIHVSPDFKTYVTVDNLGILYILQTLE

[4] = molecular target: T2, Beta-adrenergic receptor kinase 1 (Homo sapiens, UniProt P25098); assay: aptamer displacement from bead-bound GRK2 – biochemical, cherry pick 1, bead flow cytometry, dose response (AID 504500)
T2 sequence (P25098 whole entry): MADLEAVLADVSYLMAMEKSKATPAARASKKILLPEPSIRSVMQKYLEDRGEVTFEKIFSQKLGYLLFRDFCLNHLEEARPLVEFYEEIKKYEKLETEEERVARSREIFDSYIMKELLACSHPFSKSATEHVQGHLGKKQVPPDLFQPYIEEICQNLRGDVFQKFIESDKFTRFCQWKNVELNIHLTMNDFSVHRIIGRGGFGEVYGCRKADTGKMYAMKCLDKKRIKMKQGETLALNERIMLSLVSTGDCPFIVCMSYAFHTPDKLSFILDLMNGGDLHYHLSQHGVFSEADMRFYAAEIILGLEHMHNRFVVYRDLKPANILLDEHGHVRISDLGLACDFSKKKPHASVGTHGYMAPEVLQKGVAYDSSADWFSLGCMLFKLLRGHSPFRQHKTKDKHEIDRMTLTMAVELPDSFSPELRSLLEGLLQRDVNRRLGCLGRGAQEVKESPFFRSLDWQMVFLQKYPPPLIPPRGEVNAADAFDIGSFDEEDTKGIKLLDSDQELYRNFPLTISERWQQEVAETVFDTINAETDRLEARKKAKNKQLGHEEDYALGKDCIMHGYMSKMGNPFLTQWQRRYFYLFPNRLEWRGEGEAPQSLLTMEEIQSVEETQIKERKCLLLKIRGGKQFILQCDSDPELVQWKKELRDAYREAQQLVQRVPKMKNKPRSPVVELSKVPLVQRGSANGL

Sequence of Phospholipase A2 (P04054 whole entry): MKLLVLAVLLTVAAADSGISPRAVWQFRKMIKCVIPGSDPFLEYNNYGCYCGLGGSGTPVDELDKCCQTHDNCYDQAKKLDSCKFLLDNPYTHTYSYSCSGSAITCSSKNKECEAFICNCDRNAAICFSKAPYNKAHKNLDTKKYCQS

Compound | IC50 (Phospholipase A2) | IC50 (Cysteine protease ATG4B) | IC50 [1] | IC50 [2] | EC50 [3] | EC50 [4]
O=C(Nc1c(Cl)cccc1Cl)c1cc(-c2ccco2)on1 | 6.14 µM (active) | 13.2 µM (active) | – | – | – | –
C=C(C)C(=O)Nc1cccc(C2=NOC3(C2)C[C@H](C(N)=O)N(C(=O)C(c2ccccc2)c2ccccc2)C3)c1 (stereo partly drawn) | – | – | 3.12 µM (active) | 167 µM (active) | 11.4 µM (active) | 85.9 µM (inactive)
CCN(CC(=O)N1CCc2ccccc2C1)S(=O)(=O)c1ccc2ccccc2c1 | 4.17 µM (active) | 23.7 µM (inactive) | – | – | – | –
